Assay results taken from ChEMBL document CHEMBL1201862, “PubChem BioAssay data set” (2004).
The source made the active and inactive calls. Rule as the data show it, for most assays here: actives have a measured EC50 and inactives only a lower limit.

Columns and labels:
Cytochrome P450 2C9 = Cytochrome P450 2C9 (Homo sapiens, UniProt P11712)
[1] = system: Streptococcus sp. 'group A'; assay: Streptococcus pyogenes SK(-)GAS viability under kanamycin – luminescence, BacTiterGlo, confirmation, counter-screen for streptokinase expression inhibitor project, dose response (AID 1900); assay type: functional, organism-based
Streptokinase A = target: T1, Streptokinase A (Streptococcus pyogenes serotype M1, UniProt P10520); assay: viability-normalized secreted streptokinase activity reduction – plasminogen activation absorbance, OD405, dose response (AID 1914); assay type: functional, Streptococcus pyogenes M1 GAS;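 also: secreted streptokinase activity via plasminogen activation per viability signal from cell pellet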
T1 sequence (P10520 whole entry): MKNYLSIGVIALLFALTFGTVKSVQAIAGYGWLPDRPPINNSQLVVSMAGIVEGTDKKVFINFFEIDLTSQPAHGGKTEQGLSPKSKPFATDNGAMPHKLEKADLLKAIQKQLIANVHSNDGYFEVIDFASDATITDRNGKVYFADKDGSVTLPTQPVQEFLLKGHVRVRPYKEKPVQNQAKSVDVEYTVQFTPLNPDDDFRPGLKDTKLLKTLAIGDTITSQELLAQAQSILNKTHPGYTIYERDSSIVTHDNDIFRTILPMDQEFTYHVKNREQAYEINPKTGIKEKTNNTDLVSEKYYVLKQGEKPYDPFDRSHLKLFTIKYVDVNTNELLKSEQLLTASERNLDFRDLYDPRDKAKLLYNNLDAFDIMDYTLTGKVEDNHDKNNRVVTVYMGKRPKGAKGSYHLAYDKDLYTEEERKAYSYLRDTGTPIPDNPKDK

Streptococcus = assay: GAS UMAA2166 growth inhibition – luminescence, BacTiterGlo, counter-screen for streptokinase expression inhibitor project, dose response (AID 1915); assay type: functional, organism-based;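 also: potency for reduction of bacterial viability or growth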
Cytochrome P450 3A4 = Cytochrome P450 3A4 (Homo sapiens, UniProt P08684);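 also: CYP3A4 tested as one member of a cytochrome P450 panel screen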
Sequence of Cytochrome P450 3A4 (P08684 whole entry): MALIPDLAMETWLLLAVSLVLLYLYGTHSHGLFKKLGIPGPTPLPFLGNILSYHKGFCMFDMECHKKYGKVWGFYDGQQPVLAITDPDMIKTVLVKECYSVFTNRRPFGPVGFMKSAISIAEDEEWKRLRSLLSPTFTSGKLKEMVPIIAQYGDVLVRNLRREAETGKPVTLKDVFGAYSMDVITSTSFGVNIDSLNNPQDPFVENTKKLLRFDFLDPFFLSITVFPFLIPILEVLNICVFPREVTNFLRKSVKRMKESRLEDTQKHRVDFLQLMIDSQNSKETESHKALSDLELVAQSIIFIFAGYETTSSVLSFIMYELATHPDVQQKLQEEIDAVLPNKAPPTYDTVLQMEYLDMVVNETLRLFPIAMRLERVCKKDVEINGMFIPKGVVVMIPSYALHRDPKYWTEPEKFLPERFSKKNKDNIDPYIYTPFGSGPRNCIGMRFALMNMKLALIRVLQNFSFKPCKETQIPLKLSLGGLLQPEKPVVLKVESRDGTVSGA

[2] = Luminescence Cell-Based Dose Response HTS to Identify Activators of Luciferase Translation or Activity in H4 […] Cells. [Related pubchem assays: 1829 (Project Summary), 1814 (Primary HTS)]; assay type: functional
H4 = assay: Luminescence Cell-Based Dose Response HTS to Identify Activators of 5'UTR Stem-Loop Driven Prion Protein mRNA Translation in H4 Neuroglioblastoma Cells. [Related pubchem assays: 1829 (Project Summary), 1814 (Primary HTS)]; assay type: functional; settings: Homo sapiens
[3] = Trypanosoma cruzi growth suppression in host cells – NIH3T3 host cells, beta-gal luminescence, confirmation (AID 2044); assay type: functional, cell-based;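 also: intracellular parasites grown in NIH/3T3 mouse fibroblasts as host cells; luminescent beta-galactosidase reporter signal from transgenic T. cruzi replicating inside host cells; inhibitors lower the luminescence signal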
[4] = NIH3T3 cell viability loss – ATP luminescence, mouse fibroblasts, counter-screen, dose response (AID 2010); assay type: functional, cell-based;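 also: cells exposed to compound for about 90 hours before reading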

Sequence of Cytochrome P450 2C9 (P11712 whole entry): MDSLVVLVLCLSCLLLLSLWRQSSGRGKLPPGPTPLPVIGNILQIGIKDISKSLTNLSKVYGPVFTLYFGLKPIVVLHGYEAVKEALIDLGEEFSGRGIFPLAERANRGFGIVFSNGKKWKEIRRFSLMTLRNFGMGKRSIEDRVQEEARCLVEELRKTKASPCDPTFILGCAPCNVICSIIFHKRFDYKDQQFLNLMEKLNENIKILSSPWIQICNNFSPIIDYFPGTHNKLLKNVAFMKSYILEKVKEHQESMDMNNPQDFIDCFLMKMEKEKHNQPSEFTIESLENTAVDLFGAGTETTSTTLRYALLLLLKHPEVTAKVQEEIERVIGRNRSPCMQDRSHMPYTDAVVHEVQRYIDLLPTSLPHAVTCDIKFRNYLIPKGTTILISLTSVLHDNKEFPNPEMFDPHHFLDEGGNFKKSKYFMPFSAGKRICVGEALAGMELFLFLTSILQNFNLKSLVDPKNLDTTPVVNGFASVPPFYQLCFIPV

Clc1ccccc1-c1cncnc1NCCc1cnc[nH]1
AC50 (Cytochrome P450 2C9): 1 µM (inconclusive)

Clc1ccc(-c2cc3ccccc3nc2N2CCCC2)cc1
EC50 [1]: 8.89 µM (active)
EC50 (Streptokinase A): 17.6 µM (active)
EC50 (Streptococcus): > 150 µM (not active)

CCCCOc1cc(C[C@@H]2CNC(=O)N2)ccc1OC
AC50 (Cytochrome P450 3A4): 15.8 µM (inconclusive)

CN(C)c1ccc(-c2noc(C3CCN(S(=O)(=O)c4cccc(C(=O)O)c4)CC3)n2)cc1
AC50 (Cytochrome P450 2C9): 15.8 µM (inconclusive)

COc1ccccc1CNC(=O)c1ccc(-c2ccccc2Cl)o1
EC50 [1]: 15.3 µM (active)
EC50 (Streptokinase A): > 150 µM (not active)
EC50 (Streptococcus): 17.5 µM (active)

O=C(CC(=O)c1ccccc1)Nc1cccnc1Cl
EC50 [2]: 61.9 µM (active)
EC50 (H4): 8.38 µM (active)

Cc1nc2ccccc2c(=O)n1NC(=O)/C=C/c1ccccc1Cl
EC50 [2]: 12.2 µM (active)
EC50 (H4): 84.4 µM (active)

COc1cccc(-c2cncnc2NCc2ccc(OC)cc2OC)c1
AC50 (Cytochrome P450 2C9): 1 µM (inconclusive)

O=C(Nc1ccccc1Sc1ccccc1)c1ccccc1F
EC50 (Streptokinase A): > 50 µM (not active)
EC50 (Streptococcus): > 150 µM (not active)

Cc1ccc(N2C(=O)C3N=NN(CC(=O)N4N=C(c5cccc6ccccc56)CC4c4ccccc4)C3C2=O)cc1 (stereo not drawn)
EC50 [1]: 31.4 µM (active)
EC50 (Streptokinase A): 35.7 µM (active)
EC50 (Streptococcus): > 150 µM (not active)

CCN1CC(CN(C)Cc2nc(-c3ccc(C(F)(F)F)cc3)oc2C)CC1=O (stereo not drawn)
EC50 [3]: 288 nM (active)
EC50 [4]: 32.6 µM (active)

CCCC(NC(=S)NCC1CCCO1)C12CC3CC(CC(C3)C1)C2 (stereo not drawn)
EC50 (Streptokinase A): 18 µM (active)

O=C(C1CCCCC1)N(CCN1CCCC1)c1nc2ccccc2s1
EC50 [3]: 780 nM (active)
EC50 [4]: > 60 µM (not active)

O=C(c1ccco1)N(CCC(c1ccccc1)c1ccco1)Cc1ccco1 (stereo not drawn)
AC50 (Cytochrome P450 3A4): 11.2 µM (inconclusive)

O=C(O)CSc1nnc(Cn2c(=O)sc3ccccc32)n1-c1cccc(Cl)c1
EC50 [1]: > 150 µM (not active)
EC50 (Streptokinase A): > 150 µM (not active)
EC50 (Streptococcus): > 150 µM (not active)

COc1ccccc1CNc1ncncc1-c1ccccc1OC
AC50 (Cytochrome P450 2C9): 1.58 µM (inconclusive)

COCCOC(=O)C1=C(C)NC(=O)N(C(C)=O)C1c1ccc(Cl)cc1 (stereo not drawn)
AC50 (Cytochrome P450 3A4): 17.8 µM (inconclusive)

O=C(CSc1nnc(-c2cccnc2)o1)Nc1ccccn1
EC50 [2]: 14.5 µM (active)
EC50 (H4): > 120 µM (not active)

C1=C(CN2CCOCC2)COc2c1cccc2OC[C@@H]1CNCCO1
AC50 (Cytochrome P450 3A4): 39.8 µM (inconclusive)

C/C(Cn1cnc([N+](=O)[O-])n1)=N\NC(=O)c1ccc(O)cc1O
EC50 [3]: 1520 nM (active)
EC50 [4]: > 60 µM (not active)

CC(C)CN1CCC2(CC1)CCN(C(=O)c1ccncc1)CC2
AC50 (Cytochrome P450 3A4): 15.8 µM (inconclusive)

C[C@H]1CC[C@H]2C(=O)N3[C@H](c4ccc(Br)cc4)[C@@H](C)CC[C@H]3C(=O)N2[C@@H]1c1ccc(Br)cc1
AC50 (Cytochrome P450 3A4): 3.98 µM (inconclusive)

O=[N+]([O-])c1ccc(S(=O)(=O)NCC(c2cccnc2)N2CCc3ccccc32)cc1 (stereo not drawn)
EC50 [3]: 622 nM (active)
EC50 [4]: > 60 µM (not active)

O=C(Nc1cc(C(F)(F)F)ccc1-n1cncn1)c1ccc(Br)cc1
AC50 (Cytochrome P450 2C9): 3.16 µM (inconclusive)

Cc1ccc(NC(=O)OCc2cn(-c3ccc(Cl)cc3)nn2)cc1
AC50 (Cytochrome P450 3A4): 7.94 µM (inconclusive)

Cc1nn(C)c(Cl)c1CN1CCCC(C(=O)Nc2ccc(-c3cscn3)cc2)C1 (stereo not drawn)
EC50 [1]: > 150 µM (not active)
EC50 (Streptokinase A): > 150 µM (not active)
EC50 (Streptococcus): > 150 µM (not active)

CN1CCC(N(C)C(=O)c2sc3cc(F)ccc3c2Cl)CC1
EC50 [3]: 197 nM (active)
EC50 [4]: > 60 µM (not active)

C=C(C)CSc1nncn1/N=C/c1ccc(OC)cc1
EC50 [2]: > 120 µM (not active)
EC50 (H4): 11.9 µM (active)
